Source: US6333406A, “Gene encoding protein antigens of Plasmodium falciparum and uses therefor” (priority 1994, dated 2001)
Where “and” joins values, the source holds several entries; their conditions need not be identical. Equal entries are not always repeated.

Legend:
[1] = tested on: DHFR^Thr108 (reconstructed P. falciparum DHFR); settings: Dixon plots for DHFR^Thr108 and DHFR^Ser108 (FIGS. 19A-19F)
Source text: (§1) The decrease in A340 was monitored by a HITACHI spectrophotometer U-2000. The blank sample consisted of all the reaction components except the enzyme.

[2] = tested on: NC(=O)C1=CN([C@@H]2O[C@H](COP(=O)(O)OP(=O)(O)OC[C@H]3O[C@@H](n4cnc5c(N)ncnc54)[C@H](OP(=O)(O)O)[C@@H]3O)[C@@H](O)[C@H]2O)C=CC1; experiment: purified protein, by the assay type; settings: other: substrate Km, reconstructed P.f. DHFR Thr108 (Table IV); pH 7.6; 37.0 °C
[3] = target: T1, DHFR^Ser108 (reconstructed P. falciparum DHFR) (Plasmodium falciparum, UniProt P13922, N108S/R59C); experiment: Inhibition of recombinant DHFR activity, spectrophotometric assay with Dixon plot analysis; assay type: biochemical
T1 construct: The gene encoding DHFR part of the P. falciparum DHFR-TS complex; made in house; host or cells: E. coli JM103, plasmid pET-PfDHFR^Ser108 (pET-3a), induced with M13-pKM2
Source text: as §1

[4] = target: SE47' recombinant SERA protein produced in E. coli (Plasmodium falciparum); experiment: ELISA of control mouse serum
[5] = target: SE50A recombinant SERA protein produced in E. coli (Plasmodium falciparum); experiment: ELISA of control rat serum
SE50A = experiment: ELISA value of rat sera immunized with recombinant SERA protein SE50A; assay type: in vivo; settings: individual rats 1-3; subcutaneous, insoluble form without adjuvant, days 1, 22, 50
Source text: The SE50A protein was produced in E. coli cells as described for SE47'. The products were obtained as an inclusion body in the precipitate of lysed cells. The precipitate was solubilized with a buffer containing 5M guanidine HCl. After removal of insoluble materials, SE50A protein was precipitated by removing the 5M guanidine HCl again. These processes were repeated 3 times. The final precipitate contained SE50A at more than 80% purity. Three rats were immunized by subcutaneous injection of the insoluble form of SE50A without adjuvant three times on days 1, 22, and 50.

[6] = tested on: Plasmodium falciparum (FCR3); experiment: Plasmodium falciparum growth inhibition with anti-SERA serum; assay type: cell-based; settings: FCR3 culture, serum dilutions, parasitemia after 72 hours (FIGS. 16A-16B)
Description: FIGS. 16A and 16B show Plasmodium falciparum growth inhibition with anti-SER47' and anti-SE50A serum. […] The inhibition confirms that the new constructs of SERA (FIG. 10, FIG. 11, and FIG. 12) produce immunogenic material and that adjuvant enhances the induction of parasite inhibitory levels of antibodies.
The Plasmodium falciparum cell (FCR3) was grown in an in vitro culture containing 5% red blood cells (RBC). When the parasitized RBC, 96% were trophozoite and schizont, reached 4.4% of total RBC, the culture was diluted to 1% of parasitized cell in total RBC and 2% of RBC in medium. The 100 µl of the diluted culture was incubated in a 96 well dish. The culture media which contains rat or mouse serum at the indicated dilution were changed each 24 hours. Parasitemia was measured by Giemsa staining after 72 hours incubation. The sera used here were from the animal #3 of SE47' and #1 of SE50A, each of whose ELISA titer was described in Table VI.

SERA protein = experiment: Immunoblot of whole cellular proteins of Plasmodium falciparum FCR3 strain with antiserum against SE47' or SE50A; assay type: binding; settings: mouse anti-SE47' serum, rat anti-SE50A serum
Description: The antisera used for the immunoblot were as follows: lane 1, control mouse serum; lane 2, mouse anti-SF47' serum; lane 3, control rat serum; lane 4, rat anti-SE50A serum. The arrow indicates the molecular weight corresponding to SERA protein.
Parasite cells were isolated by saponin lysis of the in vitro culture. The prepared cells were analyzed by immunoblotting using SDS-polyacrylamide gel electrophoresis (12.5%). The antisera used for the immunoblot (FIG. 15) were as follows: lane 1, control mouse serum; lane 2, mouse #3 anti-SE47' serum; lane 3, control rat serum; lane 4, rat #1 anti-SE50A serum. The arrow indicates the molecular weight corresponding to SERA protein.

[7] = substrate Km of DHFR^Ser108, as stated in text
[8] = substrate Km, reconstructed P.f. DHFR Ser108 (Table IV)

With `CCc1nc(N)nc(N)c1-c1ccc(Cl)cc1` [pyrimethamine] as the molecule, how does the “manner of enzyme inhibition” value [1] read?
Its value is “competitive”.

With “DHFR^Thr108 (reconstructed P. falciparum DHFR) (Plasmodium falciparum K1; N108T/R59C)” as the molecule, how does the Km [2] read?
The Km was 19.2 ± 0.4 µM.

How did the Km [3, 7] turn out when `Nc1nc2c(c(=O)[nH]1)N=C(CNc1ccc(C(=O)N[C@@H](CCC(=O)O)C(=O)O)cc1)CN2` [DHF] was run?
Its Km is 67 µM.

What about the Km [3, 8] of the same molecule?
The Km was 66.6 ± 2.6 µM.

Which Km [3, 7] does the source give for `NC(=O)C1=CN([C@@H]2O[C@H](COP(=O)(O)OP(=O)(O)OC[C@H]3O[C@@H](n4cnc5c(N)ncnc54)[C@H](OP(=O)(O)O)[C@@H]3O)[C@@H](O)[C@H]2O)C=CC1` [NADPH] here?
The Km was 90 µM.

And the Km [3, 8]?
The Km was 90.2 ± 4.3 µM.

For “control mouse serum (polyclonal serum or antibody)”, which ELISA Titer [4] is on record?
Its ELISA Titer is less than 200.

With `CN(Cc1cnc2nc(N)nc(N)c2n1)c1ccc(C(=O)N[C@@H](CCC(=O)O)C(=O)O)cc1` [methotrexate] as the molecule, how does the “manner of enzyme inhibition” value [1] read?
The value was “competitive”.

How did the ELISA Titer [5] turn out when “control rat serum (polyclonal serum or antibody)” was run?
The ELISA Titer was less than 50.

B1: SE50A: recombinant portion of the 50 kd processed SERA protein, SEQ ID NO: 17, produced in E. coli as inclusion body (protein)
chain: MKDENNCISNLQVEDQGNCDTSWIFASKYHLETIRCMKGYEPTKISALYVANCYKGEHKDRCDEGSSPMEFLQIIEDYGFLPAESNYPYNYVKVGEQCPKVEDHWMNLWDNGKILHNKNEPNSLDGKGYTAYESERFHDNMDAFVKIIKTEVMNKGSVIAYIKAENVMGYEFSGKKVQNLCGDDTADHAVNIVGYGNYVNSEGEKKSYWIVRNSWGPYWGDEGYFKVDMYGPTHCHIEF
Which “ELISA Titer” value (SE50A) does the source give for B1 here?
Its value is 10,000 and 8,330.

What about the “parasite growth inhibition by antiserum raised against the protein” value [6] of the same molecule?
Its value is “indistinguishable from control serum except at the lowest dilution”.

What about the “recognition of SERA protein by antiserum in immunoblot” value (SERA protein) of the same molecule?
Its value is “recognize the complete SERA protein”.
